“Also recorded” adds a separate entry of the source.
Assays:
SERT Ala56 mice [1] = test: Tube Test for Social Dominance; type: in vivo; conditions: for SERT Ala56 mediated social deficits in the Tube Test: SERT Ala56 mice; for Effect of treatment on its own in the Tube Test: wildtype mice, chronic treatment 1 week
Source text: FIG. 9. […] SERT Ala56 mice display social deficits in the Tube Test compared to their SERT Gly56 littermates.
FIG. 10. […] SERT Ala56 mice display social deficits in the Tube Test compared to their SERT Gly56 littermates.
FIG. 11. […] Chi Square analysis with Yate's Correction. n.s.=not significant, *p<0.05, ***p<0.001
FIG. 12. […] Chi Square analysis with Yate's Correction. n.s.=not significant, *p<0.05, ***p<0.001
Chi Square analysis with Yate's Correction. n.s.=not significant, *p<0.05, ***p<0.001
As described herein, SERT Ala56 mice have deficits in social behaviors in the Tube Test for Social Dominance. Studies were also conducted to determine the effect of specific p38 MAPK inhibitors on social deficits in the animal of ASD. Mice were treated with either saline or a specific p38 MAPK inhibitor for one week.
SERT Ala56 mice display social deficits in the Tube Test compared to their SERT Gly56 littermates.

SERT Ala56 mice [2] = test: DOI-induced head twitch (5-HT2A receptor hypersensitivity); type: in vivo; conditions: for CNS 5-HT2A receptor hypersensitivity (DOI-induced head-twitch response): adult SERT Ala56 mice, chronic administration, dose not stated; for SERT Ala56-mediated increases in DOI-induced head twitches: QD×1 wk
Source text: Two-Way ANOVA, followed by post-hoc Bonferroni's multiple comparison tests. *p<0.05, **p<0.01
FIG. 20A-B. […] Two-Way ANOVA, followed by post-hoc Bonferroni's multiple comparison tests. **p<0.01, ***p<0.001

SERT Ala56 mice [3] = test: 8-OH-DPAT-induced hypothermia (5-HT1A receptor hypersensitivity); type: in vivo
Source text: Similarly, both drugs normalize 5-HT1A receptor hypersensitivity seen in adult SERT Ala56 mice as monitored by 8-OHDPAT induced hypothermia responses. […] […].

[4] = system: SERT Ala56 mice and WT littermates; test: Biogenic monoamine levels within the CNS by HPLC; type: in vivo; conditions: i.p., QD×1 wk
Source text: FIG. 17A-C. […] Respective brain sections were flash frozen and monoamine levels determined by HPLC. […] 5-Hydoxytryptamine (5-HT), Dopamine (DA), Norepinephrine (NE)
FIG. 19A-C. […] Respective brain sections were flash frozen and monoamine levels determined by HPLC. […] 5-Hydoxytryptamine (5-HT), Dopamine (DA), Norepinephrine (NE)
Respective brain sections were flash frozen and monoamine levels determined by HPLC.

[5] = system: SERT Ala56 mice and WT counterparts; test: Midbrain expression of SERT after chronic treatment; type: in vivo; conditions: 10 mg/kg, QD, i.p.×1 wk; SERT Ala56 mice or WT counterparts
IL-1β = conditions: in vivo treatment; cited from earlier work
[6] = chronic treatment for 1 week, dose not stated
[7] = chronic 10 mg/kg, i.p., DOI 1.0 mg/kg

Compound	SERT Ala56 mediated social deficits in the Tube Test (SERT Ala56 mice [1]; 5 mg/kg, i.p., QD×1 wk)	SERT Ala56 mediated social deficits in the Tube Test (SERT Ala56 mice [1]; 10 mg/kg, i.p., QD×1 wk)	SERT Ala56 mediated social deficits in the Tube Test (SERT Ala56 mice [1]; [6])	Effect of treatment on its own in the Tube Test (SERT Ala56 mice [1])	SERT Ala56-mediated increases in DOI-induced head twitch (SERT Ala56 mice [2]; acute, single treatment 5 mg/kg, i.p., DOI 1.0 mg/kg)	CNS 5-HT2A receptor hypersensitivity (DOI-induced head-twitch response) (SERT Ala56 mice [2])	SERT Ala56-mediated increases in DOI-induced head twitches (SERT Ala56 mice [2]; chronic 5 mg/kg, i.p., DOI 1.0 mg/kg)	SERT Ala56-mediated increases in DOI-induced head twitches (SERT Ala56 mice [2]; [7])	SERT Ala56-mediated potentiation of 8-OH-DPAT-induced hypothermia (SERT Ala56 mice [3]; 5 mg/kg, i.p. QD×1 wk)	SERT Ala56-mediated potentiation of 8-OH-DPAT-induced hypothermia (SERT Ala56 mice [3]; 10 mg/kg, i.p. QD×1 wk)	Biogenic monoamine levels (5-HT, DA, NE) in midbrain, hippocampal or frontal cortex samples ([4]; 5 mg/kg)	SERT Ala56-mediated potentiation of 8-OH-DPAT-induced hypothermia (SERT Ala56 mice [3]; i.p., QD×1 wk, dose not stated)	Biogenic monoamine levels (5-HT, DA, NE) in midbrain, hippocampal or frontal cortex samples ([4]; 10 mg/kg)	Midbrain expression of SERT [5]	LPS-induced increases in IL-1β within the CNS (IL-1β)
CN1CCN(c2cc(-c3ccncc3)c(-c3ccc4ccccc4c3)nn2)CC1 [MW150]	attenuates SERT Ala56-mediated social deficits; also recorded: reverses these social deficits	attenuates SERT Ala56-mediated social deficits	reverses these social deficits; also recorded: reverse social behavior deficits	no effects on its own; also recorded: Neither dose of MW150 was found to exert any effects on its own; also recorded: Neither dose of MW108 or MW150 was found to exert any effects on their own	not capable of reversing; also recorded: failed to mitigate	normalize CNS 5-HT2A receptor hypersensitivity	mitigates	mitigates	attenuates	attenuates	No differences between genotype or treatment group were found				
CN(C)c1cc(-c2ccncc2)c(-c2ccc3ccccc3c2)nn1 [MW108]		dose-dependently attenuate	reverses these social deficits; also recorded: reverse social behavior deficits	no effect on its own; also recorded: Neither dose of MW108 was found to exert any effects on its own; also recorded: Neither dose of MW108 or MW150 was found to exert any effects on their own		normalize CNS 5-HT2A receptor hypersensitivity		dose-dependently attenuates				reduced this effect, albeit insignificantly	No differences between genotype or treatment group were found	No changes in SERT expression	attenuate lipopolysaccharide (LPS)-induced increases in IL-1β

From patent US20160151366A1, “Compositions and Methods for Treating Autism Spectrum Disorders” (Vanderbilt University, priority 2014, published 2016)
